Our source for the IC50 values is ChEMBL document CHEMBL3886401, “Disubstituted benzothienyl-pyrrolotriazines and uses thereof” (2015).

The structures appear in SMILES notation.

The target of assay [1] is Fibroblast growth factor receptor 1 (Homo sapiens, UniProt P11362). The assay can be described thus: High ATP Kinase Assay: For the assay, 50 nl of each stock solution of the test compound in DMSO was pipetted into a black, low-volume 384-well microtiter plate (Greiner Bio-One, Frickenhausen, Germany) 2 Î¼l of a solution of the above FGFR-1 fusion protein in aqueous assay buffer [8 mM MOPS pH 7.0, 10 mM magnesium acetate, 1.0 mM dithiothreitol, 0.05% (w/v) bovine serum albumin (BSA), 0.07% (v/v) ….
Chain of Fibroblast growth factor receptor 1 (P11362 whole entry, the tested form may be a part): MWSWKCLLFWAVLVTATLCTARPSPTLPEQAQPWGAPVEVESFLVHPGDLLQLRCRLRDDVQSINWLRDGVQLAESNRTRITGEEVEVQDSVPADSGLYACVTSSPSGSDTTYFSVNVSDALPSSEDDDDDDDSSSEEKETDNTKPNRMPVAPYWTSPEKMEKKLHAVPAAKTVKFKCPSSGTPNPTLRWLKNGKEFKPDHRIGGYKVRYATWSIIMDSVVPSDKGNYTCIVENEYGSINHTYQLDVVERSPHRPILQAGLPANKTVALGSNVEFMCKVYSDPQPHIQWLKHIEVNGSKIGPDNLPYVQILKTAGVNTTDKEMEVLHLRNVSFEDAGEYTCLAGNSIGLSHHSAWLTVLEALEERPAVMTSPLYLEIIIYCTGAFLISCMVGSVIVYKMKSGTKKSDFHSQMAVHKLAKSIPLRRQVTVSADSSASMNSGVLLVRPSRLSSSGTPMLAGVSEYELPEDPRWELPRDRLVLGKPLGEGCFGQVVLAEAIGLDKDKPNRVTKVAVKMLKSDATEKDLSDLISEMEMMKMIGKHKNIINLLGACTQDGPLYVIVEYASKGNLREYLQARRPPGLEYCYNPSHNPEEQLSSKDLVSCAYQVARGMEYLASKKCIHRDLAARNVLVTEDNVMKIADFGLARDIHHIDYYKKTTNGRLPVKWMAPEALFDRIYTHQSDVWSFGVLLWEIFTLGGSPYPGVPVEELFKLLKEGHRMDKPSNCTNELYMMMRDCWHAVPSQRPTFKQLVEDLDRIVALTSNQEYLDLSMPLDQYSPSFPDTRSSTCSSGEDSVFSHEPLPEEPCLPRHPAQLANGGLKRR

The target in assay [2] is Fibroblast growth factor receptor 3 (Homo sapiens, UniProt P22607). Briefly: Kinase Assay: For the assay, 50 nl of each stock solution of the test compound in DMSO was pipetted into a black, low-volume 384-well microtiter plate (Greiner Bio-One, Frickenhausen, Germany) 2 ul of a solution of the above FGFR-3 fusion protein in aqueous assay buffer [8 mM MOPS pH 7.0, 10 mM magnesium acetate, 1.0 mM dithiothreitol, 0.05% (w/v) bovine serum albumin (BSA), 0.07% (v/v) Tween-20 ….
Chain of Fibroblast growth factor receptor 3 (P22607 whole entry, the tested form may be a part): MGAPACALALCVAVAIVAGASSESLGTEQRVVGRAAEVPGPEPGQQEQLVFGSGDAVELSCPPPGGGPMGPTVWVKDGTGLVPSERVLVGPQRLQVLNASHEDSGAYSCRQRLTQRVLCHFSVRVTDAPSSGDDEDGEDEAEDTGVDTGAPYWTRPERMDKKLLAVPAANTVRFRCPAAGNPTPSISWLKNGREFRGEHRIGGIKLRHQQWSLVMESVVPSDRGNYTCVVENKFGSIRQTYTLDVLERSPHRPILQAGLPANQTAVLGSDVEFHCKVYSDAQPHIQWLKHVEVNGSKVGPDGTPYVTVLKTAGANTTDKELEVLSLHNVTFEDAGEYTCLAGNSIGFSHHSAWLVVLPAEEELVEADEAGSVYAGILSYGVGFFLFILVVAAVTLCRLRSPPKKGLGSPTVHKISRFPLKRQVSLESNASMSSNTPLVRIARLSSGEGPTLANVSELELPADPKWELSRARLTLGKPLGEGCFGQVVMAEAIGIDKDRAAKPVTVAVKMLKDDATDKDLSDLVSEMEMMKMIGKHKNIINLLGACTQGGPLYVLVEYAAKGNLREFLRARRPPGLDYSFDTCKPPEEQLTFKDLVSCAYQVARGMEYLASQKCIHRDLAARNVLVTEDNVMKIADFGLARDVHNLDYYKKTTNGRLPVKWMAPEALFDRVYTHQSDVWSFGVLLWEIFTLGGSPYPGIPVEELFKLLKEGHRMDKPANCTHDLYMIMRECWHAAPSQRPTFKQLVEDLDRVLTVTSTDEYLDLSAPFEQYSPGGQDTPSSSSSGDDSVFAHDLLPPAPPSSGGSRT

The term IC50 denotes the concentration that inhibits the measured activity by half.

In the case of `CCOCc1c(-c2cc3cc(C)cc(OC)c3s2)c2c(N)ncnn2c1C#N`, 39.1 nM corresponded to half-maximal inhibition in assay [1] (IC50).
In assay [1], `CCOCc1c(CN2CCNC(=O)C2)c(-c2cc3cc(C)cc(OC)c3s2)c2c(N)ncnn12` had an IC50 of 8 nM.
As for `COCc1c(CN2CCNC(=O)C2)c(-c2cc3cc(C)cc(OC)c3s2)c2c(N)ncnn12`, the IC50 in assay [1] was 3.9 nM.
On to `COc1cc(C)cc2cc(-c3c(CNC(C)=O)c(CNC(C)=O)n4ncnc(N)c34)sc12`, for which the values for the IC50 in assay [1] and in assay [2] were 1.4 nM and 0.7 nM, respectively.
Regarding `COCc1c(-c2cc3cc(C)cc(OC)c3s2)c2c(N)ncnn2c1C#N`, the IC50 is 55.3 nM in assay [1] and 58.1 nM in assay [2].
